Test: Intravenous pharmacokinetic study in rats (tail vein injection)
Type: in vivo, rat
Conditions: FIG. 10, versus isonicotinate analogue

Compound: CCOC(=O)c1ccc[n+](COC(=O)N[C@@H](C)Cc2ccccc2)c1 [AMP-CO2CH2-nicotinate(Et), d-amphetamine-CO2CH2-nicotinate ethyl ester]
- exposure to d-amphetamine after intravenous administration compared to AMP-CO2CH2-isonicotinate(Et): decreases exposure to d-amphetamine

Reference: US12091386B2, “D-amphetamine compounds, compositions, and processes for making and using the same” (Zevra Therapeutics, Inc., priority 2018, dated 2024)
